Laboratory results from patent US10266545B2, “Coumarin derivative as antiviral agent, pharmaceutical composition thereof, its preparation and use” (I-NOVA MEDICINSKA ISTRAZIVANJA D.O.O., priority 2016, dated 2019).

How the values were obtained:
HIV-1 = assay: Viral load by FDA approved Real-Time PCR test (Abbott m2000) in HIV-1 infected MT-4 cells; type: cell-based, HIV-1 subtype B; settings: acute infected MT-4 cells with HIV-1, treated at MNC 0.01 mM
Procedure: The preparation of the MT-4 cell line and HIV-1 culture was the same as in previously described studies. Monitoring of the amount of virions during anti-viral analysis by measuring of the viral load with FDA approved test was performed as follows: The study was conducted with Real-Time polymerase chain reaction (PCR) test for in vitro quantitative assay of HIV-I with automated system Abbott Molecular's m2000, approved by the United States (US) Food and Drug Administration (FDA), and with the CE mark. Extraction of viral nucleic acid was carried out with an automatic extractor with magnetic particles—Abbott Molecular's m2000sp and Real-Time amplification; detection was performed with m2000rt. The sensitivity and range of the test was 40 (1.6 log copies/ml) to 10,000,000 (7.0 log copies/ml) copies/ml by the extraction of 1 ml of sample. The target region of the viral genome was a fragment of the integrase gene pol. The test was designed to detect HIV-1 subtypes A-H, group […] and N. In every test sample, an internal control was placed.
The study included three controls: negative, low positive, and high positive with the following result: • (i) negative control—result negative (not detected); • (ii) low positive control—result 938 copies/ml (2.97 log) control levels; and • (iii) high positive control—result 92,927 copies/ml (4.97 log) control levels. […]

[1] = test system: replication of HIV-1 in the infected MT-4 cells (endogenous RT); assay: Endogenous RT activity in culture fluid of HIV-1 infected MT-4 cells (HS-Lenti RT activity kit); type: cell-based, HIV-1 subtype B; settings: for inhibition at 0.1 µM: 0.0001 mM; for inhibition at 5 µM: 0.005 mM; for inhibition at 10 µM: 0.01 mM
Procedure: Furthermore, antiviral activity of compound 1 was studied on reverse transcriptase (RT) activity to elucidate potential mechanism of its antiviral action. This was done by using MT-4 cell line which […] with HIV-1. Source of HIV-1 culture fluid was chronically infected and producing HIV-1 subtype B cell line H9/HTLV III B.
Reverse transcriptase (RT) activity was determined: • (a) in the culture fluid of infected HIV-1 MT-4 cells at 72 hours after their infection (viral control); • (b) in the culture fluid of non-infected with HIV-1 cells at 72 hours and culturing without the addition of any substance (cell control); and • (c) in the culture fluid infected with HIV-1 MT-4 cells at 72 hours after infecting them, in which the desired concentration of the test compound 1 or the control compound 2 to the growth medium was added.
RT activity was determined according to the instructions of the producer. Separately was reported RT activity of standard recombinant reverse transcriptase (rRT), available in every kit. It was prepared 12-fold dilutions of the standard rRT. The manufacturer provides data on the amount of rRT in pg/well and pg/ml for each 12-fold dilution. The method used represents colorimetric method for non-radioactive determination of RT activity. It includes two stages: • (1) the synthesis of reverse transcript at the 3- or 24-hours incubation at 33° C. (which was determined experimentally); and • (2) quantitative determination of the resulting product.
In the synthesis of DNA using bromine deoxyuridine triphosphate (Brd UTP), which enter into the composition of the reaction mixture. It is included in the structure of the matrix/primer making up the DNA chain. Determination of incorporated Brd UTP was done by tracer-antibody Brd UTP, conjugated to the enzyme alkaline phosphatase. Followed colorimetrically determining the absorbance at A405 nm, which is proportional to the RT activity in the sample. According to the manufacturer, RT activity was considered positive when A405 values for the sample exceeded at least 2 times the values of A405 for negative control. Otherwise the sample was reported as such lacking RT activity, i.e. negative. The test was done by comparing the RT activity in the virus controls (100%) reported with viral RT activity in the wells treated with the test substance in the different concentrations in strict absence of RT activity in control cells. Percent inhibition of replication using the RT test was expressed as the difference between 100% (positive viral control without inhibitor) and % reported RT activity in the wells treated with the inhibitor (compounds 1 or 2) at various concentrations.
The measurement of RT activity is a widespread method for the quantitative determination of retroviruses replication. In the experimental set-up, primarily endogenous activity in supernatants was measured, i.e. in the culture fluid of virus infected cells and treated/untreated with inhibitor at 72 hours after cultivation.
For the control, commonly used substance with proven antiviral activity was employed; in our case, we used Kivexa, which contains 600 mg Abacavir and 300 mg of Lamivudine, which is applied in clinical practice as nucleoside inhibitor of RT. In the presence of RT inhibition in the test, it is concluded that not only the replication of the virus is inhibited, but also probably the target of the inhibitory effect is RT itself. To confirm this conclusion, it is necessary that percentage (%) of inhibition of the RT coincides with the % inhibition in the microtiter MTT assay. […] Reaction mixture supplemented with inhibitor was prepared at desired concentration for the assay, and then, to the mixture, recombinant RT was added with a known activity and concentration. After incubation, we determined whether the activity of the enzyme shall be amended (inhibited) by action of the compounds 1 or 2. […]

[2] = Human immunodeficiency virus 1, MT4, endogenous RT in culture liquid

Row | SMILES | Viral load (log) (HIV-1) | inhibition at 0.001 µM ([1]; Human immunodeficiency virus 1, MT4, endogenous RT in culture liquid, 0.000001 mM) [%] | inhibition at 0.01 µM ([1]; Human immunodeficiency virus 1, MT4, endogenous RT in culture liquid, 0.00001 mM) [%] | inhibition at 0.1 µM [1, 2] [%] | inhibition at 5 µM [1, 2] [%] | inhibition at 10 µM [1, 2] [%] | inhibition of HIV-1 infectivity in MT-4 cells ([1]; Table 4) [%] | inhibition at 1 µM ([1]; Human immunodeficiency virus 1, MT4, endogenous RT in culture liquid, 0.001 mM) [%]
1 | O=c1oc2cc(O)cc(O)c2c(O)c1-c1coc2c1c(=O)oc1cc(O)cc(O)c12 [Compound 1, 7,9-dihydroxy-3-(4,5,7-trihydroxy-2-oxo-2H-chromene-3-yl)-4H-furo[3,2-c]chromen-4-one] | (3.01 log) | 1.3 | 50.7 | 55 | 76.6 | 89 | > 89 | 
2 | O=c1oc2cc(O)c(O)cc2c(O)c1-c1coc2c1c(=O)oc1cc(O)c(O)cc12 [Compound 2, 7,8-dihydroxy-3-(4,6,7-trihydroxy-2-oxo-2H-chromen-3-yl)-4H-furo[3,2-c]chromen-4-one, reference compound] | (3.09 log) |  |  | 0 | 51 | 56.3 |  | 25.7
